# Measured values reported in patent publication US20110263647A1 (AMGEN INC., priority 2009, published 2011).
# Structures can show the parent of a compound that is named as a salt.
# Target: T1, PKBα (Homo sapiens, UniProt P31749)
# T1 construct: fused on or other part: His6 tag is likely on the Upstate products
# Assay: PKB kinase assay (P33-labeled ATP, peptide substrate, filter plate)
# Type: biochemical
# Details: with respect to PKBα
# Source text: The kinase assay for evaluating PKB activity comprises active PKB enzymes, a PKB specific substrate, and P^33-labeled ATP. Two form of PKBα enzymes were used, the full length PKBα and a kinase domain of PKBα with pleckstrin domain (amino acids 1-117) deleted. Both PKB enzymes were obtained from Upstate cell signaling solutions (Cat.# 14-276 and 14-341). The PKB substrate used is a synthetic peptide (ARKRERTYSFGHHA (SEQ ID NO: 1)) as described in Obata et al., J. Biol. Chem. 275 (46), 36108-36115 (2000). The phosphorylated substrate was captured by a phosphocellulose membrane filter plate (MILLIPORE) and measured by a Wallac Microbeta liquid scintillation counter (Perkin Elmer). Table 1 provides the IC50 values obtained for each of the examples with respect to PKBα.
# T1 sequence (P31749 118-472 limits assumed): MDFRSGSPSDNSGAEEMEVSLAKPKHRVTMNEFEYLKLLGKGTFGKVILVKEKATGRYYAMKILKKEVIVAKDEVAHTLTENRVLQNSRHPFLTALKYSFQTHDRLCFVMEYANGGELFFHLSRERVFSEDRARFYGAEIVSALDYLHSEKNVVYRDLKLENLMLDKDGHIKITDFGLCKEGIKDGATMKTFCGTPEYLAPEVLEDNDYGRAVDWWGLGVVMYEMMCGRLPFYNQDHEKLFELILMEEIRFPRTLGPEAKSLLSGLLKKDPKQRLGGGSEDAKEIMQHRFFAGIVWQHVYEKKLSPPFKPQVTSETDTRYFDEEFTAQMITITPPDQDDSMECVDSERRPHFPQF
row,SMILES,IC50 [nM]
1,"N[C@H](CNc1ncc(-c2ccc3cnc(F)cc3c2)s1)[C@@H](O)c1ccc(C(F)(F)F)cc1 [Example 37, (1S,2R)-2-Amino-3-((5-(3-fluoro-6-isoquinolinyl)-1,3-thiazol-2-yl)amino)-1-(4-(trifluoromethyl)phenyl)-1-propanol trifluoroacetate]",< 50
2,"COC(=O)c1nc(NC[C@@H](N)Cc2ccc(C(F)(F)F)cc2)sc1-c1ccc2cnc(F)cc2c1 [Example 20, Methyl 2-((S)-2-amino-3-(4-(trifluoromethyl)phenyl)propylamino)-5-(3-fluoroisoquinolin-6-yl)thiazole-4-carboxylate]",< 50
3,"N[C@H](CNc1ncc(-c2ccc3cnc(F)cc3c2)s1)Cn1cnc(C(F)(F)F)c1 [Example 28, N—((R)-2-Amino-3-(4-(trifluoromethyl)-1H-imidazol-1-yl)propyl)-5-(3-fluoroisoquinolin-6-yl)thiazol-2-amine]",50 to 1000
4,"CS(=O)(=O)C[C@@H](c1ccc(C(F)(F)F)cc1)[C@H](N)CNc1ncc(-c2ccc3cnc(F)cc3c2)s1 [Example 34, N-((2S,3S)-2-Amino-4-(methylsulfonyl)-3-(4-(trifluoromethyl)phenyl)butyl)-5-(3-fluoroisoquinolin-6-yl)thiazol-2-amine]",50 to 1000
5,"N[C@H](CNc1ncc(-c2ccc3cnc(F)cc3c2)s1)Cc1ccc(C(F)(F)F)nc1Cl [Example 31, N—((S)-2-Amino-3-(2-chloro-6-(trifluoromethyl)pyridin-3-yl)propyl)-5-(3-fluoroisoquinolin-6-yl)thiazol-2-amine]",< 50
6,"N[C@H](CNc1ncc(-c2ccc3cnc(F)cc3c2)s1)Cc1cnc(C(F)(F)F)nc1 [Example 26, N—((S)-2-Amino-3-(2-(trifluoromethyl)pyrimidin-5-yl)propyl)-5-(3-fluoroisoquinolin-6-yl)thiazol-2-amine]",< 50
7,CNC(=O)c1nc(NC[C@@H](N)Cc2ccc(C(F)(F)F)nc2)sc1-c1ccc2cnc(F)cc2c1 [Example 17],50 to 1000
8,Cn1ccc(C[C@H](N)CNc2ncc(-c3ccc4cnc(F)cc4c3)s2)cc1=O [Example 46],50 to 1000
9,"CC(F)(F)c1ccc(C[C@H](N)CNc2nc(CO)c(-c3ccc4cnc(F)cc4c3)s2)cn1 [Example 9, (2-((S)-2-Amino-3-(6-(1,1-difluoroethyl)pyridin-3-yl)propylamino)-5-(3-fluoroisoquinolin-6-yl)thiazol-4-yl)methanol]",< 50
10,COC(=O)c1ccc(C[C@H](N)CNc2ncc(-c3ccc4cnc(F)cc4c3)s2)cc1 [Example 45],50 to 1000
11,"CC(F)(F)c1ccc(C[C@H](N)CNc2ncc(-c3ccc4cnc(F)cc4c3)s2)cc1 [Example 3, N—((S)-2-Amino-3-(4-(1,1-difluoroethyl)phenyl)propyl)-5-(3-fluoroisoquinolin-6-yl)thiazol-2-amine]",< 50
12,"COCc1nc(NC[C@H](N)Cc2ccc(C(F)(F)F)nc2)sc1-c1ccc2cnc(F)cc2c1 [Example 19, N—((R)-2-Amino-3-(6-(trifluoromethyl)pyridin-3-yl)propyl)-5-(3-fluoroisoquinolin-6-yl)-4-(methoxymethyl)thiazol-2-amine]",1000 to 10000
13,"CC(C)(C)OC(=O)N[C@@H](Cc1ccc(C(F)(F)F)nc1)CN(C(=O)OC(C)(C)C)c1ncc(-c2ccc3cnc(F)cc3c2)s1 [Example 1, tert-Butyl ((2S)-2-((tert-butoxycarbonyl)amino)-3-(6-(trifluoromethyl)-3-pyridinyl)propyl)(5-(3-fluoro-6-isoquinolinyl)-1,3-thiazol-2-yl)carbamate]",1000 to 10000
14,"COCc1nc(NC[C@@H](N)[C@@H](C)c2ccc(C(F)(F)F)nc2)sc1-c1ccc2cnc(F)cc2c1 [Example 13, N-((2S,3S)-2-Amino-3-(6-(trifluoromethyl)pyridin-3-yl)butyl)-5-(3-fluoroisoquinolin-6-yl)-4-(methoxymethyl)thiazol-2-amine]",< 50
